Experimental data published in patent EP0000804A1, “Process for the preparation of ethers of clavulanic acid” (BEECHAM GROUP PLC, priority 1977, dated 1979).
Values after ≈ are worked out from the molar mass of the structure shown.

Key:
Assay in all cases: Minimum inhibitory concentration (MIC) in vitro, β-lactamase inhibitory activity demonstration
Type in all cases: cell-based
Proteus mirabilis C889 = conditions: compound alone, no ampicillin
Procedure: (§1) The minimum inhibitory concentrations (MIC) of certain compounds of this invention and of ampicillin, alone or in the presence of compounds of the invention, were determined in vitro for a range of micro-organisms.

E. coli JT39 = conditions: Escherichia coli, compound alone, no ampicillin, read-out: MIC EC, Compound alone
Procedure: as §1

Klebsiella aerogenes E70 = conditions: compound alone, no ampicillin, read-out: MIC KA, Compound alone
Procedure: as §1

[1] = tested on: Staphylococcus aureus Russell; conditions: compound alone, no ampicillin, read-out: MIC SAR, Compound alone
Procedure: as §1

| SMILES | MIC (Proteus mirabilis C889) | MIC (E. coli JT39) | MIC (Klebsiella aerogenes E70) | MIC [1] |
| --- | --- | --- | --- | --- |
| C=COC/C=C1\O[C@@H]2CC(=O)N2[C@H]1C(=O)OC [Example 8, Methyl 9-0-vinylclavulanate] | 250 µg/mL (≈ 1050 µM) | 500 µg/mL (≈ 2090 µM) | 500 µg/mL (≈ 2090 µM) | 125 µg/mL (≈ 523 µM) |
| C=COC/C=C1\O[C@@H]2CC(=O)N2[C@H]1C(=O)O [Example 10, Lithium 9-0-vinyl-clavulanate] | 62.5 µg/mL (≈ 278 µM) | 31.2 µg/mL (≈ 139 µM) | 31.2 µg/mL (≈ 139 µM) | 15.6 µg/mL (≈ 69.3 µM) |
